Experimental data published in patent US20230390326A1, “COMPOSITION COMPRISING CATIONIC SUBSTANCE, AND USE FOR SAME” (SUNGKWANG MEDICAL FOUNDATION, priority 2020, published 2023).
Peptide text beside a SMILES is read from it. * marks the point of attachment. Cbz = O=C(OCc1ccccc1)*

Key:
[1] = system: perforin protein; test: Western blot of perforin protein in cultured NK cells; format: cell-based; settings: NK cells treated with MG132 to prevent intracellular protein degradation
Description: Protein extracts from NK cells were separated using 10% SDS-PAGE, and transferred to a polyvinylidene difluoride amersham Biosciences membrane for 90 minutes at the voltage of 120 V. The membrane was blocked in 3% bovine serum albumin (BSA)-containing tris-buffered saline-Tween [TBST; 0.2 M NaCl, 0.1% Tween-20, and 10 mM Tris (pH 7.4)] for 1 hour. The blocked membrane was incubated with a rabbit polyclonal anti-Perforin antibody (1:1000; ab180773, abcam) or a rabbit monoclonal anti-GAPDH antibody (1:1000; […], Cell signaling). After incubation, the membrane was incubated with anti-rabbit polyclonal IgG (1:5000; #7074, Cell Signaling Technology) for 1 hour at room temperature. After each step, the membrane was washed several times using TBST and bound antibodies were detected using an enhanced chemiluminescence detection system (Thermo Fisher Scientific Biosciences) according to manufacturer instructions In order to determine whether […] increases the amount of intracellular perforin, the NK cells of Example 1 were treated with 5 μg/ml of polyethylenimine, and cultured over time (0 hour, 3 hour, 6 hour, 12 hours, 24 hours, or 48 hours), and then Western blotting was performed on the cultured NK cells to identify the amount of granzyme B and perforin protein. […]

[2] = system: triple negative breast cancer cell line MDA_MB231; test: In vitro assay of inducing activity of natural killer cells (CFSE-7AAD assay, apoptosis of target cells); format: cell-based; settings: NK cells cultured 48 hours with the substance, then mixed with MDA_MB231 at E:T 10:1 for 4 hours; target only 1.32, NK cells only 21.36
Description: Green fluorescence-labeled MDA MB 231 cells and NK cells were put into a 1.5 ml eppendorf tube in respective ratios, mixed, and reacted in a 37° C., CO2 5% incubator for 4 hours. After the reaction was over, the cells were stained with 7AAD (Invitrogen A1310) for 20 minutes and fixed. Through flow cytometry, the mixed cells were divided into two cell populations according to the presence or absence of green fluorescence, and the percentage of dead cells was measured and compared by group to analyze the activity.
In order to confirm the ability of […] to induce the activity of NK cells according to molecular weight and type, the NK cells of Example 1 were cultured for 48 hours after mixing with various molecular weights and types of polyethylenimine or with a control group.
Next, the cultured NK cells were washed, and re-suspended in a fresh culture medium. Thereafter, the NK cells and triple negative breast cancer cell line MDA_MB231 were mixed in an effector (E):target (T) ratio of 10:1 and cultured for 4 hours. Finally, the degree of apoptosis of the target cells in the cultured cells was quantitatively analyzed using the CFSE-7AAD assay.

| Molecule | amount of perforin protein [1] | degree of apoptosis of target cells [2] |
| --- | --- | --- |
| CC(C)C[C@@H](C=O)NC(=O)[C@H](CC(C)C)NC(=O)[C@H](CC(C)C)NC(=O)OCc1ccccc1 [MG132] (Cbz-Leu-Leu-Leu-aldehyde) | increased |  |
| Protamine |  | 25.31 |
